# Measurements: patent publication US20240425524A1, “SPIROTRICYCLE RIPK1 INHIBITORS AND METHODS OF USES THEREOF” (Merck Sharp & Dohme LLC, priority 2021, published 2024)
# pEC50: −log10 of the molar value.
# Molecular target: RIPK1 (Homo sapiens (Human), UniProt Q13546)
# Experiment: RIPK1-ADP-Glo Enzymatic Assay
# Format: biochemical
# Settings: recombinant GST-RIPK1 kinase domain (residues 1-327), 25 nM, ten-point titration, 30 minutes pre-incubation
# Outline: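 GST-RIPK1 kinase domain (residues 1-327, Sf21-expressed; 25 nM final) was pre-incubated 30 min at ambient temperature with compound (10-point 1:3 series from 100000 nM, 1% DMSO) in HEPES pH 7.3 buffer with 20 mM MgCl2. The reaction was started with 900 μM ATP (addition solution) and 3 μM dephosphorylated MBP and ran 150 min. Read-out was ADP-Glo luminescence, with EC50 from a four-parameter fit.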
# RIPK1, sequence (Q13546 1-327): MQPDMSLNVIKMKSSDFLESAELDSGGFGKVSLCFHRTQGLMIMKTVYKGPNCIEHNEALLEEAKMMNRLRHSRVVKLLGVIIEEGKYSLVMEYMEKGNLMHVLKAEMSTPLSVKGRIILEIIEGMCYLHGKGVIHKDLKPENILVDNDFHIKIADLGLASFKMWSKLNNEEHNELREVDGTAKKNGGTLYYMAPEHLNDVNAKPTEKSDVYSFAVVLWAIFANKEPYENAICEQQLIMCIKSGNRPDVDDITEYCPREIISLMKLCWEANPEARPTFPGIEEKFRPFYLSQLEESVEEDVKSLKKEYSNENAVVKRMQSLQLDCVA
row,SMILES,pEC50
1,"N#Cc1cc(N2CCC3(CC2)CN2CC[C@@H](c4cc(F)cc(F)c4)N2C3=O)ncn1 [Example 1.74, (S)-6-(7′-(3,5-difluorophenyl)-1′-oxodihydro-1′H,3′H,5′H-spiro[piperidine-4,2′-pyrazolo[1,2-a]pyrazol]-1-yl)pyrimidine-4-carbonitrile]",7.52
2,"O=C1N2[C@H](c3cc(F)cc(F)c3)CCN2CC12CCN(c1nc3ccccc3o1)CC2 [Example 1.80, (S)-1-(benzo[d]oxazol-2-yl)-7′-(3,5-difluorophenyl)dihydro-1′H,3′H,5′H-spiro[piperidine-4,2′-pyrazolo[1,2-a]pyrazol]-1′-one]",7.30
3,"N#Cc1nccc(N2CCC3(CC2)CN2CC[C@@H](c4cc(F)cc(F)c4)N2C3=O)n1 [Example 1.78, (S)-4-(7′-(3,5-difluorophenyl)-1′-oxodihydro-1′H,3′H,5′H-spiro[piperidine-4,2′-pyrazolo[1,2-a]pyrazol]-1-yl)pyrimidine-2-carbonitrile]",7.14
4,"Cc1cn(-c2cc(N3CCC4(CC3)CN3CC[C@@H](c5cc(F)cc(F)c5)N3C4=O)ncn2)cn1 [Example 1.19, (S)-7′-(3,5-difluorophenyl)-1-(6-(4-methyl-1H-imidazol-1-yl)pyrimidin-4-yl)dihydro-1′H,3′H,5′H-spiro [piperidine-4,2′-pyrazolo[1,2-a]pyrazol]-1′-one]",7.43
5,"O=C1N2[C@H](c3cc(F)cc(F)c3)CCN2CC12CCN(c1ncc(F)cn1)CC2 [Example 1.29, (S)-7′-(3,5-difluorophenyl)-1-(5-fluoropyrimidin-2-yl)dihydro-1′H,3′H,5′H-spiro[piperidine-4,2′-pyrazolo[1,2-a]pyrazol]-1′-one]",7.08
6,"O=C1N2[C@H](c3cc(F)cc(F)c3)CCN2CC12CCN(c1ncnc3ccsc13)CC2 [Example 1.13, (S)-7′-(3,5-difluorophenyl)-1-(thieno[3,2-d]pyrimidin-4-yl)dihydro-1′H,3′H,5′H-spiro[piperidine-4,2′-pyrazolo[1,2-a]pyrazol]-1′-one]",7.80
7,"CC(C)Oc1cc(N2CCC3(CC2)CN2CC[C@@H](c4cc(F)cc(F)c4)N2C3=O)ncc1C#N [Example 1.59, (S)-6-(7′-(3,5-difluorophenyl)-1′-oxodihydro-1′H,3′H,5′H-spiro[piperidine-4,2′-pyrazolo[1,2-a]pyrazol]-1-yl)-4-isopropoxynicotinonitrile]",7.74
8,"COc1ccc(F)cc1C(=O)N1CCC2(CC1)CN1CC[C@@H](c3cc(F)cc(F)c3)N1C2=O [Example 4.14, (S)-7′-(3,5-difluorophenyl)-1-(5-fluoro-2-methoxybenzoyl) dihydro-l′H,3′H,5′H-spiro[piperidine-4,2′-pyrazolo[1,2-a]pyrazol]-l′-one]",6.41
9,"Cc1c(Cl)ncnc1N1CCC2(CC1)CN1CC[C@@H](c3cc(F)cc(F)c3)N1C2=O [Example 1.38, (S)-1-(6-chloro-5-methylpyrimidin-4-yl)-7′-(3,5-difluorophenyl)dihydro-1′H,3′H,5′H-spiro[piperidine-4,2′-pyrazolo[1,2-a]pyrazol]-1′-one]",7.70
10,"O=C1N2[C@H](c3cc(F)cc(F)c3)CCN2CC12CCN(c1ccnc(C3CC3)n1)CC2 [Example 1.46, (S)-1-(2-cyclopropylpyrimidin-4-yl)-7′-(3,5-difluorophenyl)dihydro-1′H,3′H,5′H-spiro[piperidine-4,2′-pyrazolo[1,2-a]pyrazol]-1′-one]",7.23
11,"CN(C)C(=O)c1ccnc(N2CCC3(CC2)CN2CC[C@@H](c4cc(F)cc(F)c4)N2C3=O)n1 [Example 1.88, (S)-2-(7′-(3,5-difluorophenyl)-1′-oxodihydro-1′H,3′H,5′H-spiro[piperidine-4,2′-pyrazolo[1,2-a]pyrazol]-1-yl)-N,N-dimethylpyrimidine-4-carboxamide]",6.95
12,"O=C1N2[C@H](c3cc(F)cc(F)c3)CCN2CC12CCN(c1cc(C(F)(F)F)ncn1)CC2 [Example 1.94, (S)-7′-(3,5-difluorophenyl)-1-(6-(trifluoromethyl)pyrimidin-4-yl)dihydro-1′H,3′H,5′H-spiro[piperidine-4,2′-pyrazolo[1,2-a]pyrazol]-1′-one]",7.07
13,"O=C1N2[C@H](c3cc(F)cc(F)c3)CCN2CC12CCN(c1cc(Cl)ccn1)CC2 [Example 1.11, (7′S)-1-(4-chloropyridin-2-yl)-7′-(3,5-difluorophenyl)dihydro-1′H,3′H,5′H-spiro[piperidine-4,2′-pyrazolo[1,2-a]pyrazol]-1′-one]",7.55
14,"Cc1cnc(N2CCC3(CC2)CN2CC[C@@H](c4cc(F)cc(F)c4)N2C3=O)nc1 [Example 1.6, (7′S)-7′-(3,5-difluorophenyl)-1-(5-methylpyrimidin-2-yl)dihydro-1′H,3′H,5′H-spiro[piperidine-4,2′-pyrazolo[1,2-a]pyrazol]-1′-one]",6.41
15,"O=C1N2[C@H](c3cc(F)cc(F)c3)CCN2CC12CCN(c1cnccn1)CC2 [Example 1.41, (S)-7′-(3,5-difluorophenyl)-1-(pyrazin-2-yl)dihydro-1′H,3′H,5′H-spiro[piperidine-4,2′-pyrazolo[1,2-a]pyrazol]-1′-one]",6.51
16,"CSc1cnc(N2CCC3(CC2)CN2CC[C@@H](c4cc(F)cc(F)c4)N2C3=O)nc1 [Example 1.22, (S)-7′-(3,5-difluorophenyl)-1-(5-(methylthio)pyrimidin-2-yl)dihydro-1′H,3′H,5′H-spiro [piperidine-4,2′-pyrazolo[1,2-a]pyrazol]-1′-one]",7.05
17,"COc1nc(OC)nc(N2CCC3(CC2)CN2CC[C@@H](c4cc(F)cc(F)c4)N2C3=O)n1 [Example 1.31, (S)-7′-(3,5-difluorophenyl)-1-(4,6-dimethoxy-1,3,5-triazin-2-yl)dihydro-1′H,3′H,5′H-spiro [piperidine-4,2′-pyrazolo[1,2-a]pyrazol]-1′-one]",6.55
18,"Cc1nc(N2CCC3(CC2)CN2CC[C@@H](c4cc(F)cc(F)c4)N2C3=O)ncc1OC(F)F [Example 1.26, (S)-1-(5-(difluoromethoxy)-4-methylpyrimidin-2-yl)-7′-(3,5-difluorophenyl)dihydro-1′H,3′H,5′H-spiro [piperidine-4,2′-pyrazolo[1,2-a]pyrazol]-1′-one]",7.82
19,"O=C1N2[C@H](c3cc(F)cc(F)c3)CCN2CC12CCN(c1ccc(Cl)c3ccnn13)CC2 [Example 8.1, (S)-1-(4-chloropyrazolo[1,5-α]pyridin-7-yl)-7′-(3,5-difluorophenyl) dihydro-1′H,3′H,5′H-spiro [piperidine-4,2′-pyrazolo[1,2-α]pyrazol]-1′-one]",8.15

# Results, then the compound that gave them:
row,pEC50,SMILES
1,6.38,"O=C(c1ccncc1)N1CCC2(CC1)CN1CC[C@@H](c3cc(F)cc(F)c3)N1C2=O [Example 4.5, (S)-7′-(3,5-difluorophenyl)-1-isonicotinoyldihydro-1′H,3′H,5′H-spiro[piperidine-4,2′-pyrazolo[1,2-a]pyrazol]-l′-one]"
2,6.23,"Cn1ccc(C(=O)N2CCC3(CC2)CN2CC[C@@H](c4cc(F)cc(F)c4)N2C3=O)n1 [Example 4.6, (S)-7′-(3,5-difluorophenyl)-1-(1-methyl-1H-pyrazole-3-carbonyl)dihydro-1′H,3′H,5′H-spiro[piperidine-4,2′-pyrazolo[1,2-a]pyrazol]-l′-one]"
3,7.32,"Cc1cc(-c2cncs2)nc(N2CCC3(CC2)CN2CC[C@@H](c4cc(F)cc(F)c4)N2C3=O)c1 [Example 2.23, (S)-7′-(3,5-difluorophenyl)-1-(4-methyl-6-(thiazol-5-yl)pyridin-2-yl)dihydro-1′H,3′H,5′H-spiro[piperidine-4,2′-pyrazolo[1,2-a]pyrazol]-1′-one]"
4,7.82,"O=C(c1cc(F)ccc1F)N1CCC2(CC1)CN1CC[C@@H](c3cc(F)cc(F)c3)N1C2=O [Example 4.21, (S)-1-(2,5-difluorobenzoyl)-7′-(3,5-difluorophenyl) dihydro-1′H,3′H,5′H-spiro[piperidine-4,2′-pyrazolo[1,2-a]pyrazol]-l′-one]"
5,7.44,"O=C(c1cccc(F)c1Cl)N1CCC2(CC1)CN1CC[C@@H](c3cc(F)cc(F)c3)N1C2=O [Example 4.28, (S)-1-(2-chloro-3-fluorobenzoyl)-7′-(3,5-difluorophenyl)dihydro-1′H,3′H,5′H-spiro[piperidine-4,2′-pyrazolo[1,2-a]pyrazol]-l′-one]"
6,6.82,"O=C1N2[C@H](c3cc(F)cc(F)c3)CCN2CC12CCN(c1cnc(-c3ccc(Cl)cc3)cn1)CC2 [Example 2.18, (S)-1-(5-(4-chlorophenyl)pyrazin-2-y1)-7′-(3,5-difluorophenyl)dihydro-1′H,3′H,5′H-spiro[piperidine-4,2′-pyrazolo[1,2-a]pyrazol]-1′-one]"
7,7.62,"O=C1N2[C@H](c3cc(F)cc(F)c3)CCN2CC12CCN(c1ccnc3ccccc13)CC2 [Example 2.7, (S)-7′-(3,5-difluorophenyl)-1-(quinolin-4-yl)dihydro-1′H,3′H,5′H-spiro[piperidine-4,2′-pyrazolo[1,2-a]pyrazol]-1′-one]"
8,6.86,"COC(=O)N1CCC2(CC1)CN1CC[C@@H](c3cc(F)cc(F)c3)N1C2=O [Example 5.2, methyl (S)-7′-(3,5-difluorophenyl)-1′-oxodihydro-1′H,3′H,5′H-spiro [piperidine-4,2′-pyrazolo[1,2-a]pyrazole]-1-carboxylate]"
9,7.30,"O=C1N2[C@H](c3cc(F)cc(F)c3)CCN2CC12CCN(c1cc(-n3ccnc3)ccn1)CC2 [Example 2.25, (S)-1-(4-(1H-imidazol-1-yl)pyridin-2-y1)-7′-(3,5-difluorophenyl)dihydro-1′H,3′H,5′H-spiro[piperidine-4,2′-pyrazolo[1,2-a]pyrazol]-1′-one]"
10,7.02,"O=C1N2[C@H](c3cc(F)cc(F)c3)CCN2CC12CCN(c1cnc(-c3cccc(Cl)c3)cn1)CC2 [Example 2.17, (S)-1-(5-(3-chlorophenyl)pyrazin-2-yl)-7′-(3,5-difluorophenyl)dihydro-1′H,3′H,5′H-spiro[piperidine-4,2′-pyrazolo[1,2-a]pyrazol]-1′-one]"
